Patent US5726200A, “Pro-drugs for CCK antagonists” (Warner-Lambert Company, priority 1996, dated 1998)

biological target: T1, CCK-B receptor (Mus musculus, UniProt P56481); assay: Displacement of tritiated-pentagastrin binding to mouse cerebral cortical membranes; set-up: species or system mouse (male CFLP mice); details: displacement of 2 nM tritiated-pentagastrin, n = number of assays, read-out: Receptor Affinity CCI-B (Ki)
T1 construct: from tissue; host or cells: cerebral cortex membranes of male CFLP mice
T1 sequence (P56481 1-453): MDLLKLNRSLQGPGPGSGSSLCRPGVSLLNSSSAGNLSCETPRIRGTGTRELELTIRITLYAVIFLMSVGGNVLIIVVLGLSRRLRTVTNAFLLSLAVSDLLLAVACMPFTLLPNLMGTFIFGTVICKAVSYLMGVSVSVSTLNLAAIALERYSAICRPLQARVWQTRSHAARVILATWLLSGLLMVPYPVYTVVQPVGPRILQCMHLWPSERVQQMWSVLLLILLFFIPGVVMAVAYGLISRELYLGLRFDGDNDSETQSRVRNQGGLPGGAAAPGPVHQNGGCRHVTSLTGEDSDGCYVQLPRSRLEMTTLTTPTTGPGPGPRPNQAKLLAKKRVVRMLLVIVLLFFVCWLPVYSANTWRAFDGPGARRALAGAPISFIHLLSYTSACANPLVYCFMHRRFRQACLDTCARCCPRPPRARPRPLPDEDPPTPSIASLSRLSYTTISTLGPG
Method: The biological activity of compounds of the present invention was evaluated employing an initial screening test which rapidly and accurately measured the binding of the tested compound to known CCK receptor sites. […] (See Hays et al, Neuropeptides 1:53-62, 1980; and Satuer et al, Science 208:1155-1156, 1980).
In this screening test, the cerebral cortices taken from male CFLP mice weighing between 30-40 g were dissected on ice, weighed, and homogenized in 10 volumes of 50 mM Tris-HCl buffer (pH 7.4 at 0°-4° C.). The resulting suspension was centrifuged, the supernate was discarded, and the pellet was washed by resuspension in Tris-HCl buffer followed by recentrifugation. The final pellet was resuspended in 20 volumes of […] Hepes buffer (pH 7.2 at 23° C.) containing 130 mM NaCl, […] KCl, […] MgCl2, […] EDTA, 5 mg/mL bovine albumin, and bacitracin (0.25 mg/mL).
In saturation studies, cerebral cortical membranes were incubated at 23° C. for 120 minutes in a final volume of 500 μL of Hepes incubation buffer (pH 7.2) together with 0.2-20 nM tritiated-pentagastrin (Amersham International, England).
In the displacement experiments, membranes were incubated with a single concentration (2 nM) of iigand, together with increasing concentrations (10^-11 to […]) of competitive test compound. In each case, the nonspecific binding was defined as that persisting in the presence of the unlabeled octapeptide CCK26-33 (10^-6 M).
Following incubation, radioactivity bound to membranes was separated from that free in solution by rapid filtration through Whatman GF/B filters and washed three times with 4 mL of ice cold Tris-HCl buffer. Filters from samples incubated with tritiated-pentagastrin were placed in polyethylene vials with 4 mL of scintillation cocktail, and the radioactivity was estimated by liquid scintillation spectrometry (efficiency 47-52%).
The specific binding to CCK receptor sites was defined as the total bound tritiated-pentagastrin minus the amount of tritiated-pentagastrin bound in the presence of 10^-6 octapeptide, CCK26-33.
Saturation curves for specific tritiated-pentagastrin binding to mouse cortical membranes were analyzed by the methods of Scatchard (Ann. New York Acad. Sci. 51:660-672, 1949, and Hill (J. Physiol. 40:IV-VIII, 1910, to provide estimates for the maximum number of binding sites (Bmax) and the equilibrium dissociation constant (Ka).
In displacement experiments, inhibition curves were analyzed by either logit-log plots or the iterative curve fitting computer program ALLFIT (DeLean, Munson and Redbard, 1978) to provide estimates of the IC50 and nH (apparent Hill coefficient) values). (IC50 values were defined as the concentration of test compound required to produce 50% inhibition of specific binding.)
The inhibition constant (Ki) of the test compound was then calculated according to the Cheng-Prusoff equation: [formula] where [L] is the concentration of radiolabel and Ka is the equilibrium dissociation constant.

| SMILES | Ki |
| --- | --- |
| COC(=O)CCCCCNC(=O)[C@H](Cc1ccccc1)NC(=O)[C@@](C)(Cc1c[nH]c2ccccc12)NC(=O)OC1C2CC3CC(C2)CC1C3 (stereo partly drawn) [Compound 5d, L-Phenylalaninamide, α-methyl-N-[(tricyclo[3.3.1.1^3,7]dec-2-yloxy)carbonyl]-D-tryptophyl-N-(6-methoxy-6-oxohexyl)] | 173 nM |
| COC(=O)CC[C@H](NC(=O)[C@H](Cc1ccccc1)NC(=O)[C@@](C)(Cc1c[nH]c2ccccc12)NC(=O)OC1C2CC3CC(C2)CC1C3)C(=O)OC (stereo partly drawn) [Compound 5f] | 110 nM |
| C[C@](Cc1c[nH]c2ccccc12)(NC(=O)OC1C2CC3CC(C2)CC1C3)C(=O)N[C@@H](Cc1ccccc1)C(=O)NCCC(=O)O (stereo partly drawn) [Compound 6a, β-Alanine, N-[N-[α-methyl-N-[(tricyclo[3.3.1.1^3,7]-dec-2-yloxy)carbonyl]-D-tryptophyl]-L-phenylalanyl]] | 27.9 ± 4.1 nM |
| C[C@](Cc1c[nH]c2ccccc12)(NC(=O)OC1C2CC3CC(C2)CC1C3)C(=O)N[C@@H](Cc1ccccc1)C(=O)N[C@@H](CC(=O)O)C(=O)O (stereo partly drawn) [Compound 6h, L-Aspartic acid, N-[N-[α-methyl-N-[(tricyclo[3.3.1.1^3,7]dec-2-yloxy)carbonyl]-D-tryptophyl]-L-phenylalanyl]] | 1170 nM |
| C[C@](Cc1c[nH]c2ccccc12)(NC(=O)OC1C2CC3CC(C2)CC1C3)C(=O)N[C@@H](Cc1ccccc1)C(=O)N[C@@H](CCC(=O)O)C(=O)O (stereo partly drawn) [Compound 6i, L-Glutamic acid, N-[N-[α-methyl-N-[(tricyclo[3.3.1.1^3,7]dec-2-yloxy)carbonyl]-D-tryptophyl]-L-phenylalanyl]] | 1520 nM |
| C[C@](Cc1c[nH]c2ccccc12)(NC(=O)OC1C2CC3CC(C2)CC1C3)C(=O)N[C@@H](Cc1ccccc1)C(=O)NCC(=O)O (stereo partly drawn) [Compound 6j, Glycine, N-[2-methyl-N-[(tricyclo[3.3.1.1^3,7]dec-2-yloxy)carbonyl]-D-tryptophyl]-L-phenylalanyl-] | 7.41 ± 1.04 nM |
| COC(=O)CCNC(=O)C[C@H](Cc1ccccc1)NC(=O)[C@@](C)(Cc1c[nH]c2ccccc12)NC(=O)OC1C2CC3CC(C2)CC1C3 (stereo partly drawn) [Compound 10a, β-Alanine, N-[3-[[3-(1H-indol-3-yl)-2-methyl-1-oxo-2-[[(tricyclo[3.3.1.1^3,7]dec-2-yloxy)carbonyl]amino]propyl]amino]-1-oxo-4-phenylbutyl]-, methyl ester, [R-(R*,S*)]] | 21.2 ± 5.4 nM |
| CCOC(=O)CNC(=O)C[C@H](Cc1ccccc1)NC(=O)[C@@](C)(Cc1c[nH]c2ccccc12)NC(=O)OC1C2CC3CC(C2)CC1C3 (stereo partly drawn) [Compound 10k, Glycine, N-[3-[[3-(1H-indol-3-yl)-2-methyl-1-oxo-2-[[(tricyclo[3.3.1.1^3,7]dec-2-yloxy)carbonyl]amino]propyl]amino]-1-oxo-4-phenylbutyl]-, ethyl ester, [R-(R*,S*)]-] | 17.9 nM |
| CCOC(=O)CCCNC(=O)C[C@H](Cc1ccccc1)NC(=O)[C@@](C)(Cc1c[nH]c2ccccc12)NC(=O)OC1C2CC3CC(C2)CC1C3 (stereo partly drawn) [Compound 10l] | 66.4 nM |
| C[C@](Cc1c[nH]c2ccccc12)(NC(=O)OC1C2CC3CC(C2)CC1C3)C(=O)N[C@H](CC(=O)NCCC(=O)O)Cc1ccccc1 (stereo partly drawn) [Compound 11a, β-Alanine, N-[3-[[3-(1H-indol-3-yl)-2-methyl-1-oxo-2-[[(tricyclo[3.3.1.1^3,7]dec-2-yloxy)carbonyl]amino]propyl]amino]-1-oxo-4-phenylbutyl]-, [R-(R*,S*)]] | 9.44 nM |
| C[C@](Cc1c[nH]c2ccccc12)(NC(=O)OC1C2CC3CC(C2)CC1C3)C(=O)N[C@H](CC(=O)NCC(=O)O)Cc1ccccc1 (stereo partly drawn) [Compound 11k] | 4.4 ± 0.6 nM |
| C[C@](Cc1c[nH]c2ccccc12)(NC(=O)OC1C2CC3CC(C2)CC1C3)C(=O)N[C@H](CC(=O)NCCCC(=O)O)Cc1ccccc1 (stereo partly drawn) [Compound 11l, Butanoic acid, 4-[[3-[[3-(1H-indol-3-yl)-2-methyl-1-oxo-2-[[(tricyclo[3.3.1.1^3,7]dec-2-yloxy)carbonyl]amino]propyl]amino]-1-oxo-4-phenylbutyl]amino]-, [R-(R*,S*)]] | 10.6 ± 0.12 nM |
